Data: patent US8394759B2, “Transdermal delivery of medicaments with combinations of cetylated fatty ester penetrant complexes” (Cymbiotics, Inc., priority 2008, dated 2013)

Legend:
[1] = Permeation in the CFEP formulations; conditions: in any of the three formulations of Example 3
[2] = free base; cited from earlier work
[3] = oral; cited from earlier work
patients = conditions: oral formulations; cited from earlier work
arthritic patients = assay: Topical cetylated fatty ester complexes with rubefacients versus placebo base, joint functionality and pain; type: in vivo, human; conditions: eucalyptus oil 1% to 5%, camphor 1-7% in the carrier formulation
Excerpt: The composition of the invention provides for the administration of permeants with anti-arthritic properties. A topical application consisting of the cetylated fatty ester complexes in concentrations of 5% to 20% with rubefacients (such as methyl salicylate, menthol and for some variations capsaicin can be applied to affected areas of arthritic patients). The permeants were at concentrations ranging from 1-30%. The carrier formulation consisted of a penetrant group of 8 cetyl fatty esters (4-9%; cetyl decanoate, cetyl laurate, cetyl myristate, cetyl myristoleate, cetyl oleate, cetyl palmitate, cetyl palmitoleate and cetyl stearate) with propylene glycol as the polar solvent (12%), in the described cream base at a pH of 6.5. One variation of carrier formulation is also an anti-inflammatory and is used topically to treat joint pain and musculoskeletal pain and other types of pains in arthritis (Kraemer W J et al. 2004 J Rheumatology 31:767-74; Kraemer W J et al. 2005 J Strength and Conditioning Res 19: 475-80 and Sharan et al. 2009, submitted for publication), The preferred polar solvent is propylene glycol. […]

mouse skin = assay: Transdermal diazepam in CFEP-Complex formulation delivered to mouse skin; type: in vivo; conditions: single application to mouse skin in 4-9% CFEP-Complex formulation; preliminary, 'may provide'
Description: A formulation for transdermal delivery is a novel format for diazepam or lorazepam or clonazepam, and utilizes the lipophilic properties of each molecule. In one example diazepam is administered in 3 doses, namely 10 mg/gram, 25 mg/gram and 50 mg/gram using a 4-9% CFEP-Complex carrier formulation consisting of cetyl decanoate, cetyl laurate, cetyl myristate, cetyl myristoleate, cetyl oleate, cetyl palmitate, cetyl palmitoleate and cetyl stearate. The polar solvent used is propylene glycol (12%) in the described cream base at a pH of 6.5. A pH range of 6-7 is effective and tocopherol acetate is the antioxidant at 1%. […] The permeant is first finely emulsified in the CFEP-Complex and polar solvent prior to addition of the cream base. A single application of diazepam delivered to mouse skin in this formulation may provide pronounced activity for 5-8 hours. […] Pregabalin in a topical format is also an excellent anti-convulsant and useful in the treatment of seizure already described in examples 4 and 5 above.

[4] = oral; cited from earlier work; remark: listed apart in the source
[5] = intravenous injection, 5 mg; cited from earlier work

In the case of O=C(O)CCCCC1CCSS1 (stereo not drawn) [Alpha lipoic acid], the permeation [1] is reported as “permeates well”.

For CNC1(c2ccccc2Cl)CCCCC1=O (centres unmarked) [Ketamine, 2-(2-chlorophenyl)-2-(methylamino)-cyclohexanone], the lipid solubility [2] is listed as 10 times that of thiopentone.

In the case of CC(C)C[C@H](CN)CC(=O)O [Pregabalin], the bioavailability [3] is listed as “more than 90%” and the “adverse reactions such as drowsiness and dizziness, share of the patients” value (patients) is listed as “more than 10%”.

In the case of CC12CCC(CC1=O)C2(C)C (centres unmarked) [camphor], the “other rubefacients found to be effective” value (arthritic patients) is reported as “effective”.

For CN1C(=O)CN=C(c2ccccc2)c2cc(Cl)ccc21 [diazepam], the “duration of pronounced activity” value (mouse skin) was 5 to 8 h.

In the case of C/C1=C2/[N-][C@H]([C@H](CC(N)=O)[C@@]2(C)CCC(=O)NC[C@@H](C)OP(=O)([O-])O[C@H]2[C@@H](O)[C@@H](n3cnc4cc(C)c(C)cc43)O[C@@H]2CO)[C@]2(C)N=C(/C(C)=C3N=C(/C=C4N=C1[C@@H](CCC(N)=O)C\4(C)C)[C@@H](CCC(N)=O)[C@]\3(C)CC(N)=O)[C@@H](CCC(N)=O)[C@]2(C)CC(N)=O.[CH3-].[Co+3] [methylcobalamin], the “rate of absorption by passive diffusion” value [4] is listed as 1-2 % of the ingested material.

For CCN(CC)CC#CCOC(=O)C(O)(c1ccccc1)C1CCCCC1 (centres unmarked) [oxybutynin], the Tmax [5] is listed as 15 min.
